In US12083124B2 (Incyte Corporation, priority 2019, dated 2024):
Where two headings read alike, the source gives them in different places. Values belong to the molecule of their own block, whether it stands above or below them.

Assays:
[1] = target: wild-type un-phosphorylated FGFR2 (Homo sapiens, UniProt P21802); test: FGFR Enzymatic Assay (FRET peptide phosphorylation), FGFR2
[2] = target: wild-type un-phosphorylated FGFR1 (Homo sapiens, UniProt P11362); test: FGFR Enzymatic Assay (FRET peptide phosphorylation), FGFR1; conditions: pre-incubated for 4 hours
wild-type un-phosphorylated FGFR1, sequence (P11362 22-822): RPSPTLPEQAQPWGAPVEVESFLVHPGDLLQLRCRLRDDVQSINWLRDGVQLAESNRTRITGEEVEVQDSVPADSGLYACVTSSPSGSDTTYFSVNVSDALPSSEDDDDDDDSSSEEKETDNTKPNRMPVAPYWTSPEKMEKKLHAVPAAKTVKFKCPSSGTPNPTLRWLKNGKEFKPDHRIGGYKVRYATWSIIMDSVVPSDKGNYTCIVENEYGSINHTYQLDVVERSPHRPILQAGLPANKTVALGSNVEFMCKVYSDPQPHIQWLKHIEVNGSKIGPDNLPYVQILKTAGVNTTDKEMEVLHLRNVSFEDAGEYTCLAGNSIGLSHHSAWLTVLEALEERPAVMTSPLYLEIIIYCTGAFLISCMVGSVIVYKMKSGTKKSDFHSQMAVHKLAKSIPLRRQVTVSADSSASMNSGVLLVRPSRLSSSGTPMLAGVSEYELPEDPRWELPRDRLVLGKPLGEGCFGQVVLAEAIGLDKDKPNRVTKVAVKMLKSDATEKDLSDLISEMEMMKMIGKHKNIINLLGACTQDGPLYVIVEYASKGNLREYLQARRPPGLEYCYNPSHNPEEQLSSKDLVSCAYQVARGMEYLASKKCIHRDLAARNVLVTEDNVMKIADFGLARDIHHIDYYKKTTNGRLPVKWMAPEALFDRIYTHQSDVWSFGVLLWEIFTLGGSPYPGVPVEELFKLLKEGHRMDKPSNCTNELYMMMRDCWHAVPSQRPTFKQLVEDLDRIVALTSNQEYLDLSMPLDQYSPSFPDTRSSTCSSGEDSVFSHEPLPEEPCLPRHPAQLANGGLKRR

[3] = target: wild-type un-phosphorylated FGFR4 (Homo sapiens, UniProt P22455); test: FGFR Enzymatic Assay (FRET peptide phosphorylation), FGFR4
wild-type un-phosphorylated FGFR4, sequence (P22455 22-802): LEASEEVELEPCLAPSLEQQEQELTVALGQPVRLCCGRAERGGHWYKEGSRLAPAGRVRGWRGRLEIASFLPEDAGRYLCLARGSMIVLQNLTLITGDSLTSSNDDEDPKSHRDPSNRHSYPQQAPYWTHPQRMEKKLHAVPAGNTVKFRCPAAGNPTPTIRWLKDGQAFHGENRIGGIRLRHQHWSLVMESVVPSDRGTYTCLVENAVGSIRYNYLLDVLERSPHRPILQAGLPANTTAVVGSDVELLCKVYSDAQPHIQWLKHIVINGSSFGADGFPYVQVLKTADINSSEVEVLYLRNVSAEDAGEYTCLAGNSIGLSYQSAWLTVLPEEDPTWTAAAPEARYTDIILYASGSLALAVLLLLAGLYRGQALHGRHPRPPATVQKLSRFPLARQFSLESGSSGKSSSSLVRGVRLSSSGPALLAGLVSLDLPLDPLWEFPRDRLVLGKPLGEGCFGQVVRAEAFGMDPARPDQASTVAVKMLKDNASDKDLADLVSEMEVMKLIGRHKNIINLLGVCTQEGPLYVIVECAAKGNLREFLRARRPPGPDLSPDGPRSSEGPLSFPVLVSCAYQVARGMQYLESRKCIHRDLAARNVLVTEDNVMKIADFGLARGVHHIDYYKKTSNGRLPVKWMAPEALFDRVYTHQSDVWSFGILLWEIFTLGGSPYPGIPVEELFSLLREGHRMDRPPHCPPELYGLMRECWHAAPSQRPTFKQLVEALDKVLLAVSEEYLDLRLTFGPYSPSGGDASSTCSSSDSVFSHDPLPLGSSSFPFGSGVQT

[4] = target: wild-type un-phosphorylated FGFR3 (Homo sapiens, UniProt P22607); test: FGFR Enzymatic Assay (FRET peptide phosphorylation), FGFR3
wild-type un-phosphorylated FGFR3, sequence (P22607 23-806): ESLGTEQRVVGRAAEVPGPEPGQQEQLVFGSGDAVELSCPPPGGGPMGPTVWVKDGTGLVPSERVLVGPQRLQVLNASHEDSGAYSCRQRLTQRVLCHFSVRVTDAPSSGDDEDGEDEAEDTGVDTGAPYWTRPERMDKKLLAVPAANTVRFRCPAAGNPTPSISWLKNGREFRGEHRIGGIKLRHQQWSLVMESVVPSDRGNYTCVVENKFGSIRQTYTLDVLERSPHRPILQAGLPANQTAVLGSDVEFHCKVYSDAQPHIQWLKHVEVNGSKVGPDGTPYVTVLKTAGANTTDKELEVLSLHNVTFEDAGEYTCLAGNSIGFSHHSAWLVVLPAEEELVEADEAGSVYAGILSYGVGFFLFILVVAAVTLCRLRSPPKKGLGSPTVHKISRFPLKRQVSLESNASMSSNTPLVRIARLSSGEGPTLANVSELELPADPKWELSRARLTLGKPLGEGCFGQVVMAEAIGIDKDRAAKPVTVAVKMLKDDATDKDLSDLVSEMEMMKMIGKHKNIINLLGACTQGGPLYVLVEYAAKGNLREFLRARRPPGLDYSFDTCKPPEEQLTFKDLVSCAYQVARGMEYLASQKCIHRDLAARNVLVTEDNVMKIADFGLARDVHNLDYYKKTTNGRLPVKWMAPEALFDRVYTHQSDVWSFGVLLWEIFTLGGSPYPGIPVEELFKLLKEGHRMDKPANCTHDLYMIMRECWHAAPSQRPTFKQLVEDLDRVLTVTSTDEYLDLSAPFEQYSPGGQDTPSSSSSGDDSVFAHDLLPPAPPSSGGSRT
Description: The inhibitor potency of the exemplified compounds was determined in an enzyme discontinuous assay that measures peptide phosphorylation using FRET measurements to detect product formation. Inhibitors were serially diluted in DMSO and a volume of 0.2 μL was transferred to the wells of a 384-well plate. […] Appropriate controls (enzyme blank and enzyme with no inhibitor) were included on the plate. […] The 10 μL/well reaction concentration of the peptide substrate was 500 nM whereas the ATP concentration was maintained near or below the ATP Km. The ATP Km values were pre-determined in a separate series of experiments. The reaction plate was incubated at 25° C. for 1 hr and the reactions were ended with the addition of 5 μL/well of quench solution (50 mM Tris, 150 mM NaCl, 0.5 mg/mL BSA, pH 7.8; 45 mM EDTA, 600 nM staurosporin, with Perkin Elmer Lance Reagents at 3.75 nM Eu-antibody PY20 and 180 nM APC-Streptavidin). The plate was allowed to equilibrate for ˜10 minutes at ambient temperature before scanning on a PheraStar plate reader (BMG Labtech) instrument.
Either GraphPad prism or XLfit was used to analyze the data. The IC50 values were derived by fitting the data to a four parameter logistic equation producing a sigmoidal dose-response curve with a variable Hill coefficient. Prism equation: Y=Bottom+(Top-Bottom)/(1+10^((Log IC50-X)*Hill slope)); XLfit equation: Y=(A+((B−A)/(1+((X/C)^D)))) where X is the logarithm of inhibitor concentration and Y is the response.
GraphPad prism3 was used to analyze the data. The IC50 values were derived by fitting the data to the equation for a sigmoidal dose-response with a variable slope. Y=Bottom+(Top-Bottom)/(1+10^((Log IC50-X)*Hill Slope)) where X is the logarithm of concentration and Y is the response.

[5] = FGFR1, wild-type un-phosphorylated FGFR1
[6] = read-out: FGFR1, wild-type un-phosphorylated FGFR1
[7] = read-out: FGFR4, wild-type un-phosphorylated FGFR4, pre-incubated for 4 hours
[8] = read-out: FGFR2, wild-type un-phosphorylated FGFR2, pre-incubated for 4 hours
[9] = read-out: FGFR3, wild-type un-phosphorylated FGFR3, pre-incubated for 4 hours

wild-type un-phosphorylated FGFR2, sequence (P21802 22-821): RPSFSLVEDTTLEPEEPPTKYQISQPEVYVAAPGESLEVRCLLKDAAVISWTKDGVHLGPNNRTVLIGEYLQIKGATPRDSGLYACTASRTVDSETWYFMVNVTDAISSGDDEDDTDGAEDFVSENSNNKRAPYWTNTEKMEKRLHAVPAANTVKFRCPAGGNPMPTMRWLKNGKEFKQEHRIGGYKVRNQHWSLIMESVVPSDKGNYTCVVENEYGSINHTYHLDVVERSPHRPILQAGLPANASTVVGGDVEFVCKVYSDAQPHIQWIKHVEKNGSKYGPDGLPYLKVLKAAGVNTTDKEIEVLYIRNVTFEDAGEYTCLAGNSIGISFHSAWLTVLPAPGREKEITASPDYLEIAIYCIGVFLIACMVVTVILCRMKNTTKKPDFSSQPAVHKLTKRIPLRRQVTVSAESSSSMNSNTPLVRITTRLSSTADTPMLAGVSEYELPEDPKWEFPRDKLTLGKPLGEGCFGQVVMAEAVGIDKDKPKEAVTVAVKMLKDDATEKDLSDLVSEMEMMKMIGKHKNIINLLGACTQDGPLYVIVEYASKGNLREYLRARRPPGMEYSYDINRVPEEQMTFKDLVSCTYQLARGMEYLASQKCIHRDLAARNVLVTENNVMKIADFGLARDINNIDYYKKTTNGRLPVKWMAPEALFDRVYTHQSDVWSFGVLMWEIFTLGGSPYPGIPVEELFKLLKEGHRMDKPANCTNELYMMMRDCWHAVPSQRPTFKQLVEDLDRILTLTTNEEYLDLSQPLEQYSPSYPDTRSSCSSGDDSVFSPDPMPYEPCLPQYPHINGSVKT

SMILES: COc1cc2[nH]nc(-c3cnn(C4CN(C(=O)[C@@H]5COCCN5C)C4)c3)c2nc1-c1cccc2c1CCC2 [Example 128, (S)-(3-(4-(5-(2,3-Dihydro-1H-inden-4-yl)-6-methoxy-1H-pyrazolo[4,3-b]pyridin-3-yl)-1H-pyrazol-1-yl)azetidin-1-yl)(4-methylmorpholin-3-yl)methanone]
IC50 [1]: < 6 nM
IC50 [2, 6]: 6 to 40 nM
IC50 [3]: 40 to 100 nM
IC50 [4]: < 6 nM

SMILES: COc1cc2[nH]nc(-c3cnn(C4CN(S(C)(=O)=O)C4)c3)c2nc1-c1cccc2c1CCC2 [Example 23, 5-(2,3-Dihydro-1H-inden-4-yl)-6-methoxy-3-(1-(1-(methylsulfonyl)azetidin-3-yl)-1H-pyrazol-4-yl)-1H-pyrazolo[4,3-b]pyridine]
IC50 [1]: < 6 nM
IC50 [2, 5]: > 100 nM
IC50 [3]: > 100 nM
IC50 [4]: < 6 nM

SMILES: COc1cc2[nH]nc(-c3ccc(C4CN(C(=O)[C@@H]5CCCCN5C)C4)nc3)c2nc1-c1cccc2c1CCC2 [Example 173, (S)-(3-(5-(5-(2,3-Dihydro-1H-inden-4-yl)-6-methoxy-1H-pyrazolo[4,3-b]pyridin-3-yl)pyridin-2-yl)azetidin-1-yl)(1-methylpiperidin-2-yl)methanone]
IC50 [1]: < 6 nM
IC50 [2, 6]: 6 to 40 nM
IC50 [3, 7]: 6 to 40 nM
IC50 [4]: < 6 nM

SMILES: COc1cc2[nH]nc(-c3ccc(CN4CCN(C)C(=O)[C@@H]4C)nc3)c2nc1-c1cccc2c1CCC2 [Example 199, (S)-4-((5-(5-(2,3-Dihydro-1H-inden-4-yl)-6-methoxy-1H-pyrazolo[4,3-b]pyridin-3-yl)pyridin-2-yl)methyl)-1,3-dimethylpiperazin-2-one]
IC50 [1]: < 6 nM
IC50 [2, 5]: 40 to 100 nM
IC50 [3]: 40 to 100 nM
IC50 [4]: < 6 nM

SMILES: COc1cc2[nH]nc(-c3cnn(C4CCN(C(C)=O)CC4)c3)c2nc1-c1cccc2c1CCC2C#N (centres unmarked) [Example 112, 4-(3-(1-(1-Acetylpiperidin-4-yl)-1H-pyrazol-4-yl)-6-methoxy-1H-pyrazolo[4,3-b]pyridin-5-yl)-2,3-dihydro-1H-indene-1-carbonitrile]
IC50 [1]: < 6 nM
IC50 [2, 5]: 40 to 100 nM
IC50 [3]: 40 to 100 nM
IC50 [4]: < 6 nM

SMILES: COc1cc2[nH]nc(-c3ccc(C4CCN(C(=O)CO)C4)nc3)c2nc1-c1cccc2c1CCC2 (single isomer, unassigned) [Example 102, 1-(3-(5-(5-(2,3-Dihydro-1H-inden-4-yl)-6-methoxy-1H-pyrazolo[4,3-b]pyridin-3-yl)pyridin-2-yl)pyrrolidin-1-yl)-2-hydroxyethan-1-one]
IC50 [1, 8]: < 6 nM
IC50 [2, 6]: 6 to 40 nM
IC50 [3, 7]: 6 to 40 nM
IC50 [4, 9]: < 6 nM

SMILES: COc1cc2[nH]nc(-c3ccc(N4CCOCC4)nc3)c2nc1-c1cccc2c1CCC2 [Example 58, 4-(5-(5-(2,3-Dihydro-1H-inden-4-yl)-6-methoxy-1H-pyrazolo[4,3-b]pyridin-3-yl)pyridin-2-yl)morpholine]
IC50 [1]: < 6 nM
IC50 [2, 5]: 40 to 100 nM
IC50 [3]: 40 to 100 nM
IC50 [4]: < 6 nM

SMILES: COc1cc2[nH]nc(-c3cnn([C@H]4CCN(C(=O)[C@@H]5CCN5CCF)C4)c3)c2nc1-c1cccc2c1CCC2 [Example 143, ((S)-3-(4-(5-(2,3-dihydro-1H-inden-4-yl)-6-methoxy-1H-pyrazolo[4,3-b]pyridin-3-yl)-1H-pyrazol-1-yl)pyrrolidin-1-yl)((S)-1-(2-fluoroethyl)azetidin-2-yl)methanone]
IC50 [1]: < 6 nM
IC50 [2, 6]: 6 to 40 nM
IC50 [3, 7]: 6 to 40 nM
IC50 [4]: < 6 nM

SMILES: COc1cc2[nH]nc(-c3ccc(C(C)N4CCOCC4)nc3)c2nc1-c1cccc2c1CCC2 (centres unmarked) [Example 162, 4-(1-(5-(5-(2,3-Dihydro-1H-inden-4-yl)-6-methoxy-1H-pyrazolo[4,3-b]pyridin-3-yl)pyridin-2-yl)ethyl)morpholine]
IC50 [1]: < 6 nM
IC50 [2, 5]: 40 to 100 nM
IC50 [3]: > 100 nM
IC50 [4]: < 6 nM

SMILES: COc1cc2[nH]nc(-c3cnn(Cc4ccncc4)c3)c2nc1-c1cccc2c1CCC2 [Example 27, 5-(2,3-Dihydro-1H-inden-4-yl)-6-methoxy-3-(1-(pyridin-4-ylmethyl)-1H-pyrazol-4-yl)-1H-pyrazolo[4,3-b]pyridine]
IC50 [1]: < 6 nM
IC50 [2, 5]: 40 to 100 nM
IC50 [3]: 40 to 100 nM

SMILES: COc1cc2[nH]nc(-c3ccc(C45CC4CN(CCO)C5)nc3)c2nc1-c1cccc2c1CCC2 (single isomer, unassigned) [Example 194C, 2-(1-(5-(5-(2,3-Dihydro-1H-inden-4-yl)-6-methoxy-1H-pyrazolo[4,3-b]pyridin-3-yl)pyridin-2-yl)-3-azabicyclo[3.1.0]hexan-3-yl)ethan-1-ol]
IC50 [1, 8]: < 6 nM
IC50 [2, 6]: 6 to 40 nM
IC50 [4, 9]: < 6 nM

SMILES: CC(=O)N1CCN(c2ccc(-c3n[nH]c4cc(OC(F)F)c(-c5cccc(C)c5C)nc34)cn2)CC1 [Example 6, 1-(4-(5-(6-(Difluoromethoxy)-5-(2,3-dimethylphenyl)-1H-pyrazolo[4,3-b]pyridin-3-yl)pyridin-2-yl)piperazin-1-yl)ethan-1-one]
IC50 [1]: < 6 nM
IC50 [2, 5]: > 100 nM
IC50 [4]: < 6 nM

SMILES: COc1cc2[nH]nc(-c3ccc(N4CCS(=N)(=O)CC4)nc3)c2nc1-c1cccc(C)c1C [Example 86, 4-(5-(5-(2,3-Dimethylphenyl)-6-methoxy-1H-pyrazolo[4,3-b]pyridin-3-yl)pyridin-2-yl)-1-imino-1λ^6-thiomorpholine 1-oxide]
IC50 [1]: < 6 nM
IC50 [2, 5]: > 100 nM
IC50 [4]: < 6 nM

SMILES: COc1cc2[nH]nc(-c3ccc(C4CCC(C(=O)O)CC4)nc3)c2nc1-c1cccc(C)c1C (centres unmarked) [Example 79, 4-(5-(5-(2,3-Dimethylphenyl)-6-methoxy-1H-pyrazolo[4,3-b]pyridin-3-yl)pyridin-2-yl)cyclohexane-1-carboxylic acid]
IC50 [1]: < 6 nM
IC50 [2, 5]: 40 to 100 nM
IC50 [4]: < 6 nM

SMILES: COc1cc2[nH]nc(-c3ccc(N4CCN5C[C@H](O)C[C@H]5C4)nc3)c2nc1-c1cccc(C)c1F [Example 94, (7R,8aS)-2-(5-(5-(2-Fluoro-3-methylphenyl)-6-methoxy-1H-pyrazolo[4,3-b]pyridin-3-yl)pyridin-2-yl)octahydropyrrolo[1,2-a]pyrazin-7-ol]
IC50 [1, 8]: 6 to 40 nM
IC50 [2, 5]: > 100 nM
IC50 [4]: < 6 nM

Further lines, results first:

IC50 [1]: < 6 nM
IC50 [2, 5]: 40 to 100 nM
IC50 [3]: > 100 nM
IC50 [4]: < 6 nM
SMILES: COc1cc2[nH]nc(-c3cnn(C4CCN(C(=O)N(C)C)CC4)c3)c2nc1-c1cccc2c1CCC2 [Example 19, 4-(4-(5-(2,3-Dihydro-1H-inden-4-yl)-6-methoxy-1H-pyrazolo[4,3-b]pyridin-3-yl)-1H-pyrazol-1-yl)-N,N-dimethylpiperidine-1-carboxamide]

IC50 [1]: < 6 nM
IC50 [2, 6]: 6 to 40 nM
IC50 [3]: 40 to 100 nM
IC50 [4]: < 6 nM
SMILES: COc1cc2[nH]nc(-c3ccc(C4CN(C(=O)CN(C)C)C4)nc3)c2nc1-c1cccc2c1CCC2 [Example 174, 1-(3-(5-(5-(2,3-Dihydro-1H-inden-4-yl)-6-methoxy-1H-pyrazolo[4,3-b]pyridin-3-yl)pyridin-2-yl)azetidin-1-yl)-2-(dimethylamino)ethan-1-one]

IC50 [1]: < 6 nM
IC50 [2, 6]: 6 to 40 nM
IC50 [3]: 40 to 100 nM
IC50 [4]: < 6 nM
SMILES: COc1cc2[nH]nc(-c3ccc(C4(C#N)CCN(C(=O)CO)C4)nc3)c2nc1-c1cccc2c1CCC2 (centres unmarked) [Example 198, 3-(5-(5-(2,3-Dihydro-1H-inden-4-yl)-6-methoxy-1H-pyrazolo[4,3-b]pyridin-3-yl)pyridin-2-yl)-1-(2-hydroxyacetyl)pyrrolidine-3-carbonitrile]

IC50 [1]: < 6 nM
IC50 [2, 6]: 6 to 40 nM
IC50 [3, 7]: 6 to 40 nM
IC50 [4]: < 6 nM
SMILES: COc1cc2[nH]nc(-c3cnn([C@H]4CCN(C(=O)CO)C4)c3)c2nc1-c1cccc2c1CCC2 [Example 129, (S)-1-(3-(4-(5-(2,3-Dihydro-1H-inden-4-yl)-6-methoxy-1H-pyrazolo[4,3-b]pyridin-3-yl)-1H-pyrazol-1-yl)pyrrolidin-1-yl)-2-hydroxyethan-1-one]

IC50 [1]: < 6 nM
IC50 [2, 6]: 6 to 40 nM
IC50 [3, 7]: 6 to 40 nM
IC50 [4]: < 6 nM
SMILES: COc1cc2[nH]nc(-c3ccc(N4CCN(C)CC4)nc3)c2nc1-c1cccc2c1CCC2C#N (single isomer, unassigned) [Example 186, 4-(6-Methoxy-3-(6-(4-methylpiperazin-1-yl)pyridin-3-yl)-1H-pyrazolo[4,3-b]pyridin-5-yl)-2,3-dihydro-1H-indene-1-carbonitrile]

IC50 [1]: < 6 nM
IC50 [2, 5]: 40 to 100 nM
IC50 [3]: > 100 nM
IC50 [4]: < 6 nM
SMILES: CCN1CCN(c2ccc(-c3n[nH]c4cc(OC)c(-c5cccc(C)c5C)nc34)cn2)CC1 [Example 42, 5-(2,3-Dimethylphenyl)-3-(6-(4-ethylpiperazin-1-yl)pyridin-3-yl)-6-methoxy-1H-pyrazolo[4,3-b]pyridine]

IC50 [1]: < 6 nM
IC50 [2, 6]: 6 to 40 nM
IC50 [3, 7]: 6 to 40 nM
IC50 [4]: < 6 nM
SMILES: COc1cc2[nH]nc(-c3cnn(C4CN(C(=O)[C@H]5C[C@](C)(O)C5)C4)c3)c2nc1-c1cccc2c1CCC2 [Example 135, (3-(4-(5-(2,3-Dihydro-1H-inden-4-yl)-6-methoxy-1H-pyrazolo[4,3-b]pyridin-3-yl)-1H-pyrazol-1-yl)azetidin-1-yl)((1r,3r)-3-hydroxy-3-methylcyclobutyl)methanone]

IC50 [1]: < 6 nM
IC50 [2, 6]: 6 to 40 nM
IC50 [3, 7]: 6 to 40 nM
IC50 [4]: < 6 nM
SMILES: COc1cc2[nH]nc(-c3ccc(C4CCN(C5CCNC5=O)C4)nc3)c2nc1-c1cccc2c1CCC2 (single isomer, unassigned) [Example 105, 3-(5-(5-(2,3-Dihydro-1H-inden-4-yl)-6-methoxy-1H-pyrazolo[4,3-b]pyridin-3-yl)pyridin-2-yl)-[1,3′-bipyrrolidin]-2′-one]
